Patent US10138249B2, “Triazolopyridines and triazolopyrazines as LSD1 inhibitors” (priority 2014, dated 2018)

target: LSD-1 enzyme (Homo sapiens (Human), UniProt O60341); assay type: biochemical; settings: not given
Description: LANCE LSD1/KDM1A demethylase assay-10 μL of 1 nM LSD-1 enzyme (ENZO BML-SE544-0050) in the assay buffer (50 mM Tris, pH 7.5, 0.01% Tween-20, 25 mM NaCl, 5 mM DTT) were preincubated for 1 hour at 25° C. with 0.8 μL compound/DMSO dotted in black 384 well polystyrene plates. […] After stopping the reactions plates were incubated for 30 minutes and read on a PHERAstar FS plate reader (BMG Labtech).

SMILES | IC50
Cc1ccc(-c2c(-c3ccc(C#N)cc3)cc(OC[C@@H]3CCNC3)c3nn(Cc4ccccc4)c(=O)n23)cc1 [Example 16, 4-{2-benzyl-5-(4-methylphenyl)-3-oxo-8-[(3R)-pyrrolidin-3-ylmethoxy]-2,3-dihydro[1,2,4]triazolo[4,3-a]pyridin-6-yl}benzonitrile] | < 50 nM
Cc1ccc(-c2c(-c3ccc(C#N)cc3)cc(OC[C@@H]3CCNC3)c3nn(CC4CCCC4)c(=O)n23)cc1 [Example 7, 4-{2-(cyclopentylmethyl)-5-(4-methylphenyl)-3-oxo-8-[(3R)-pyrrolidin-3-ylmethoxy]-2,3-dihydro[1,2,4]triazolo[4,3-a]pyridin-6-yl}benzonitrile] | < 50 nM
Cc1ccc(-c2c(-c3ccc(C#N)cc3)cc(OC[C@@H]3CCNC3)c3nn(CC#N)c(=O)n23)cc1 [Example 5, (R)-4-(2-(cyanomethyl)-3-oxo-8-(pyrrolidin-3-ylmethoxy)-5-p-tolyl-2,3-dihydro-[1,2,4]triazolo[4,3-a]pyridin-6-yl)benzonitrile] | < 50 nM

same assay, conditions: 1 nM LSD-1 enzyme, 1 hour preincubation at 25° C., 0.4 μM biotin-labeled histone H3 peptide substrate

SMILES | IC50
Cc1ccc(-c2c(-c3ccc(C#N)cc3)cc(OC[C@@H]3CCNC3)c3n[nH]c(=O)n23)cc1 [Example 3, 4-{5-(4-methylphenyl)-3-oxo-8-[(3R)-pyrrolidin-3-ylmethoxy]-2,3-dihydro[1,2,4]triazolo[4,3-a]pyridin-6-yl}benzonitrile] | ≤ 50 nM
Cc1ccc(-c2c(-c3ccc(C#N)cc3)cc(OC[C@@H]3CCNC3)c3nn(CCC#N)c(=O)n23)cc1 [Example 6, 4-{2-(2-cyanoethyl)-5-(4-methylphenyl)-3-oxo-8-[(3R)-pyrrolidin-3-ylmethoxy]-2,3-dihydro[1,2,4]triazolo[4,3-a]pyridin-6-yl}benzonitrile] | ≤ 50 nM
Cc1ccc(-c2c(-c3ccc(C#N)cc3)cc(OC[C@@H]3CCNC3)c3nn(CC4CCNCC4)c(=O)n23)cc1 [Example 13, 4-{5-(4-methylphenyl)-3-oxo-2-(piperidin-4-ylmethyl)-8-[(3R)-pyrrolidin-3-ylmethoxy]-2,3-dihydro[1,2,4]triazolo[4,3-a]pyridin-6-yl}benzonitrile] | ≤ 50 nM
Cc1ccc(-c2c(-c3ccc(C#N)cc3)cc(OC[C@@H]3CCNC3)c3nn(Cc4ccc(C#N)cc4)c(=O)n23)cc1 [Example 17, 4-{2-(4-cyanobenzyl)-5-(4-methylphenyl)-3-oxo-8-[(3R)-pyrrolidin-3-ylmethoxy]-2,3-dihydro[1,2,4]triazolo[4,3-a]pyridin-6-yl}benzonitrile] | ≤ 50 nM
Cc1ccc(-c2c(-c3ccc(C#N)cc3)cc(OC[C@@H]3CCNC3)c3nn(CCOc4ccccc4)c(=O)n23)cc1 [Example 14, 4-{5-(4-methylphenyl)-3-oxo-2-(2-phenoxyethyl)-8-[(3R)-pyrrolidin-3-ylmethoxy]-2,3-dihydro[1,2,4]triazolo[4,3-a]pyridin-6-yl}benzonitrile] | ≤ 50 nM
Cc1ccc(-c2c(-c3ccc(C#N)c(F)c3)cc(OC[C@@H]3CCNC3)c3nncn23)cc1 [Example 2, 2-fluoro-4-{5-(4-methylphenyl)-8-[(3R)-pyrrolidin-3-ylmethoxy][1,2,4]triazolo[4,3-a]pyridin-6-yl}benzonitrile] | ≤ 50 nM
Cc1ccc(-c2c(-c3ccc(C#N)cc3)cc(OC[C@@H]3CCNC3)c3nncn23)cc1 [Example 1, 4-{5-(4-methylphenyl)-8-[(3R)-pyrrolidin-3-ylmethoxy][1,2,4]triazolo[4,3-a]pyridin-6-yl}benzonitrile] | ≤ 50 nM
Cc1ccc(-c2c(-c3ccc(C#N)cc3)cc(OC[C@@H]3CCNC3)c3nn(CCN(C)C)c(=O)n23)cc1 [Example 15, 4-{2-[2-(dimethylamino)ethyl]-5-(4-methylphenyl)-3-oxo-8-[(3R)-pyrrolidin-3-ylmethoxy]-2,3-dihydro[1,2,4]triazolo[4,3-a]pyridin-6-yl}benzonitrile] | ≤ 50 nM
